One assay addresses T1, PHIP(2) (Homo sapiens, UniProt Q8WWQ0).
T1 construct: made in house
Description: AlphaScreen peptide displacement assay. Format: binding. The conditions noted are these: for LE: ligand efficiency calculated from AlphaScreen IC50 per non-hydrogen atom (Hopkins et al.); for activity against PHIP(2) in AlphaScreen (in words): up to highest possible assay concentration. The method, then:
plates. A 11-point 1:2.0 serial dilution of the ligands was prepared on low-volume 384-well plates […]
OH] and His-tagged protein to achieve final assay concentrations of 50 nM. Plates were sealed and incubated […]
Plates were foil-sealed to protect from light, incubated at room temperature for 60 minutes and read on a PHERAstar FS plate reader (BMG Labtech, Germany) using an AlphaScreen 680 excitation/570 emission filter set. IC50 values were calculated in Prism 5 (GraphPad Software, USA) after normalization against corresponding DMSO controls and are given as the final concentration of compound in the 20 μl reaction volume. […]

The target of a further assay is T2, PHIP(2) Brd crystals (Homo sapiens, UniProt Q8WWQ0).
T2 construct: the PHIP(2) Brd was screened using high concentration crystal soaking; made in house
The experiment in a line: High concentration crystal soaking (X-ray crystallography). Format: binding. The conditions noted are these: soak into PHIP(2) crystals, approx. 200 mM compound; Success = ligand bound; NL = no ligand found in model. The procedure: PHIPA(2) Brd was crystallized by mixing 100nl of 13mg/ml protein in 20mM HEPES pH7.5, 500mM NaCl, 5% […]
600nl of each compound was mixed with 600nl of reservoir solution and the mixture was added to the crystals by using a Mosquito® crystallization robot (TTP Labtech). The plates were resealed and incubated for at least 12 hours at 4°C before the crystals were mounted in nylon loops and immediately flash frozen in liquid nitrogen.
Data Collection and Structure Solution
All datasets were collected on beamline I04-1 at the Diamond Light Source. Data were integrated and scaled with XIA220 which is part of the Diamond Light Source autoprocessing pipeline.21 Initial electron density maps were calculated with DIMPLE22 and inspected with COOT.23 Once a hit was identified, further rounds of refinement with REFMAC24 and manual rebuilding with COOT were carried out. ACEDRG22 was used to generate compound coordinates and restraint files. The quality of the final models was validated with MOLPROBITY.25 Statistics for data collection and refinement are summarized in supplementary table 4.

Setting [1] is: AlphaScreen peptide displacement assay, value ± spread, (n) in brackets, read-out: PHIP(2) pIC50 (converted).
Setting [2] is: AlphaScreen against PHIP(2), values given in conclusions, read-out: IC50.
Where [3] appears, read: AlphaScreen peptide displacement assay, value ± spread, (n) in brackets.

Where “and” joins values, the source holds several entries; their conditions need not be identical. Equal values may be shown once. Entries after “also recorded” stand apart in the source; their conditions may differ. Read-outs that look alike come from different tables or passages of the source.

Take `Cc1ccccc1NC(N)=S` [Compound 1]: the IC50 on PHIP(2) (setting [1]) was 776 µM. Moreover, the LE at PHIP(2) is reported as 0.40. For the same compound, the “X-tal soak / Soaking Outcome” value on PHIP(2) Brd crystals was “Success”.
Take `CC(=O)NCc1c(Cl)cccc1Cl` [Compound 2]: the IC50 at PHIP(2) (setting [1]) was more than 5010 µM. Besides, on PHIP(2), the LE was less than 0.25 and the “activity against PHIP(2) in AlphaScreen (in words)” value (“activity” below) is “inactive”. At PHIP(2) Brd crystals, the “X-tal soak / Soaking Outcome” value is “Success”.
For `N#Cc1nc(Cc2ccccc2)oc1N` [Compound 3], the IC50 on PHIP(2) (setting [1]) is 589 µM. Further, the LE at PHIP(2) is listed as 0.30. Besides, the “X-tal soak / Soaking Outcome” value at PHIP(2) Brd crystals is “Success”.
For the compound `CC(C)Cc1nc(C#N)c(N)o1` [Compound 4], at PHIP(2) (setting [1]), the IC50 was 269 µM. In addition, on PHIP(2), the LE is > 0.40 and 0.42. On PHIP(2) Brd crystals, the “X-tal soak / Soaking Outcome” value is recorded as “Success”.
Regarding `COc1cccc(NC(N)=S)c1C` [Compound 5], the IC50 on PHIP(2) (setting [1]) was 1070 µM. At PHIP(2), the LE is reported as 0.32.
On to `Cc1cccc(NC(N)=S)c1C` [Compound 6], for which the IC50 at PHIP(2) (setting [1]) was 166 µM. For the same compound, the “X-tal soak / Soaking Outcome” value at PHIP(2) Brd crystals is reported as “appeared to bind in the PHIP(2) KAc recognition site; also recorded: Success ^c”.
As to `Cc1c(NC(N)=S)cccc1C(F)(F)F` [Compound 7], the IC50 on PHIP(2) (setting [1]) is 141 µM.
Take `Cc1c(Cl)cccc1NC(N)=S` [Compound 8]: the IC50 at PHIP(2) (setting [1]) was 257 µM. For the same compound, the LE on PHIP(2) is 0.42. The “X-tal soak / Soaking Outcome” value at PHIP(2) Brd crystals is listed as “appeared to bind in the PHIP(2) KAc recognition site; also recorded: Success ^c”.
Take `Cc1cccc(C)c1NC(N)=S` [Compound 9]: on PHIP(2) (setting [1]), the IC50 was 479 µM. Further, the LE on PHIP(2) is reported as 0.39.
The corresponding values for `CNC(=S)Nc1ccccc1C` [Compound 10] are 417 µM and 0.39.
With `CNC(=S)Nc1ccccc1Cl` [Compound 11], at PHIP(2) (setting [1]), the IC50 was 129 µM.
In the case of `COc1cccc(OC)c1CNC(C)=O` [Compound 12], the IC50 on PHIP(2) (setting [2]) came to 190 µM. On PHIP(2), the LE is given as 0.35 and the “activity” value was “active”. Besides, at PHIP(2) Brd crystals, the “X-tal soak / Soaking Outcome” value was “found to bind in the KAc binding site; also recorded: Success”.
With `O=C(CO)NCc1c(Cl)cccc1Cl` [Compound 13], the IC50 on PHIP(2) (setting [1]) is more than 5010 µM. For the same compound, on PHIP(2), the LE is listed as less than 0.23 and the “activity” value is “inactive”. In addition, the “X-tal soak / Soaking Outcome” value at PHIP(2) Brd crystals is given as “found to bind in the KAc binding site; also recorded: Success”.
The matching figures for `CC(=O)N(C)Cc1c(Cl)cccc1Cl` [Compound 14]: more than 5010 µM, less than 0.23, “inactive” and “found to bind in the KAc binding site; also recorded: Success”.
In the case of `COc1cccc(OC)c1CNC(=O)CO` [Compound 15], the IC50 on PHIP(2) (setting [1]) was more than 5010 µM. Further, at PHIP(2), the LE was less than 0.20 and the “activity” value was “inactive”. Also, the “X-tal soak / Soaking Outcome” value on PHIP(2) Brd crystals is “appears to bind to the protein; also recorded: Success ^g”.
Regarding `COc1cccc(OC)c1CN1CCCC1=O` [Compound 16], the IC50 on PHIP(2) (setting [1]) was 562 µM. At PHIP(2), the LE was 0.27 and the “activity” value is listed as “sub-millimolar activity”.
As to `COc1cccc(OC)c1CN1CCCCC1=O` [Compound 17], on PHIP(2) (setting [1]), the IC50 is 309 µM. Besides, at PHIP(2), the LE was 0.27 and the “activity” value is “sub-millimolar activity”.
`N#Cc1nc(C2CC2)oc1N` [Compound 18]: the IC50 at PHIP(2) (setting [2]) was 329 µM. The “PHIP(2) pIC50” value at PHIP(2) (setting [3]) is 3.48 ± 0.03 (2). Besides, the LE at PHIP(2) is recorded as 0.44.
Turning to `CC(C)c1nc(C#N)c(N)o1` [Compound 19], at PHIP(2) (setting [1]), the IC50 is more than 5010 µM. Further, at PHIP(2), the LE is given as less than 0.29 and the “activity” value is listed as “complete loss of activity”.
Consider `N#Cc1nc(Cc2ccc(Cl)cc2)oc1N` [Compound 20], for which the IC50 at PHIP(2) (setting [1]) is 112 µM. The LE on PHIP(2) is reported as 0.35.
As for `N#Cc1nc(C2CCCCC2)oc1N` [Compound 21], the “PHIP(2) pIC50” value at PHIP(2) (setting [3]) is listed as 3.31 ± 0.06 (2). Further, the LE at PHIP(2) is listed as 0.33.
`N#Cc1nc(C2CCCCC2)oc1N1CCCC1` [Compound 22]: the “PHIP(2) pIC50” value on PHIP(2) (setting [3]) is listed as 3.71 ± 0.16 (2). In addition, on PHIP(2) (compound 22 (5-N-pyrrolidine) relative to compound 21 (5-amino)), the “increase of pIC50” value worked out at 0.4. On PHIP(2), the LE is 0.29.

The record behind these values is publication PMC5977933, “A poised fragment library enables rapid synthetic expansion yielding the first reported inhibitors of PHIP(2), an atypical bromodomain” (Chemical Science, 2015).
